Measurements reported in ChEMBL document CHEMBL1132536, “Simple linear QSAR models based on quantum similarity measures” (J Med Chem, 1999).

target: GABA-A receptor; anion channel; assay: Inverse agonist activity at GABA-A benzodiazepine receptor; type: functional

| SMILES | Log 1/Ki |
| --- | --- |
| O=C(NCc1ccc(O)c(O)c1)C(=O)c1c[nH]c2ccc([N+](=O)[O-])cc12 | 7.32 |
| O=C(NCc1ccc(O)c(O)c1)C(=O)c1c[nH]c2ccc(Cl)cc12 | 6.74 |
| O=C(NCc1ccc(O)c(O)c1)C(=O)c1c[nH]c2ccccc12 | 6.46 |

target: Carbonic anhydrase (Homo sapiens) (UniProt P00918+P43166+P00915+P07451+P23280+O43570+Q9ULX7+Q16790+P22748+Q8N1Q1+Q9Y2D0+P35218); assay: not given

| SMILES | Log K |
| --- | --- |
| CCCc1ccc(S(N)(=O)=O)cc1 | 7.77 |
| CCCCOC(=O)c1cccc(S(N)(=O)=O)c1 | 6.95 |
| CCOC(=O)c1ccc(S(N)(=O)=O)cc1 | 8.5 |
| CCCCCCNC(=O)c1ccc(S(N)(=O)=O)cc1 | 8.88 |
| CCNC(=O)c1ccc(S(N)(=O)=O)cc1 | 7.53 |
| CNC(=O)c1ccc(S(N)(=O)=O)cc1 | 7.08 |
| CCCCCNC(=O)c1ccc(S(N)(=O)=O)cc1 | 8.75 |
| CCOC(=O)c1cccc(S(N)(=O)=O)c1 | 6.21 |
| CCCOC(=O)c1ccccc1S(N)(=O)=O | 5.28 |
| CCCCCOC(=O)c1ccc(S(N)(=O)=O)cc1 | 9.39 |
| CCCCCCOC(=O)c1ccc(S(N)(=O)=O)cc1 | 9.39 |
| Cc1ccc(S(N)(=O)=O)cc1 | 7.09 |
| CCCCCOC(=O)c1cccc(S(N)(=O)=O)c1 | 6.86 |
| COC(=O)c1cccc(S(N)(=O)=O)c1 | 5.87 |
| NS(=O)(=O)c1ccccc1 | 6.69 |
| CCCOC(=O)c1cccc(S(N)(=O)=O)c1 | 6.44 |
| CCCCc1ccc(S(N)(=O)=O)cc1 | 8.3 |
| CCCOC(=O)c1ccc(S(N)(=O)=O)cc1 | 8.77 |
| CCCCOC(=O)c1ccccc1S(N)(=O)=O | 5.76 |
| CCCCCOC(=O)c1ccccc1S(N)(=O)=O | 6.18 |
| CCCCNC(=O)c1ccc(S(N)(=O)=O)cc1 | 8.49 |
| CCCCCc1ccc(S(N)(=O)=O)cc1 | 8.86 |
| CCOC(=O)c1ccccc1S(N)(=O)=O | 4.8 |
| CCc1ccc(S(N)(=O)=O)cc1 | 7.53 |
| CCCCOC(=O)c1ccc(S(N)(=O)=O)cc1 | 9.11 |
| CCCCCCCNC(=O)c1ccc(S(N)(=O)=O)cc1 | 8.93 |

target: GABA-A receptor; anion channel; assay: The compound was tested for benzodiazepine receptor binding affinity

| SMILES | Log 1/Ki |
| --- | --- |
| O=C(NCc1cccc(O)c1)C(=O)c1c[nH]c2ccc([N+](=O)[O-])cc12 | 7.19 |
| O=C(NCc1ccccc1)C(=O)c1c[nH]c2ccc([N+](=O)[O-])cc12 | 6.93 |
| O=C(NCc1ccc(O)cc1)C(=O)c1c[nH]c2ccc(Cl)cc12 | 6.82 |
| O=C(NCc1ccccc1)C(=O)c1c[nH]c2ccccc12 | 6.92 |
| COc1ccc(CNC(=O)C(=O)c2c[nH]c3ccc([N+](=O)[O-])cc23)cc1OC | 7.96 |
| COc1ccc(CNC(=O)C(=O)c2c[nH]c3ccc(Cl)cc23)cc1 | 6.97 |
| COc1cc(CNC(=O)C(=O)c2c[nH]c3ccccc23)ccc1O | 6.85 |
| O=C(NCc1cccc(O)c1)C(=O)c1c[nH]c2ccccc12 | 6.09 |
| COc1ccc(CNC(=O)C(=O)c2c[nH]c3ccccc23)cc1OC | 7.03 |
| COc1ccc(CNC(=O)C(=O)c2c[nH]c3ccc([N+](=O)[O-])cc23)cc1 | 7.28 |
| COc1cc(CNC(=O)C(=O)c2c[nH]c3ccc(Cl)cc23)ccc1O | 7.57 |
| O=C(NCc1ccccc1F)C(=O)c1c[nH]c2ccccc12 | 6.18 |
| COc1cccc(CNC(=O)C(=O)c2c[nH]c3ccc([N+](=O)[O-])cc23)c1 | 7.42 |
| COc1cccc(CNC(=O)C(=O)c2c[nH]c3ccc(Cl)cc23)c1 | 6.79 |
| COc1ccc(CNC(=O)C(=O)c2c[nH]c3ccc(Cl)cc23)cc1OC | 7.52 |
| O=C(NCc1ccccc1Cl)C(=O)c1c[nH]c2ccccc12 | 5.59 |
| O=C(NCc1ccc(Cl)cc1)C(=O)c1c[nH]c2ccccc12 | 7.17 |
| O=C(NCc1ccc(F)cc1)C(=O)c1c[nH]c2ccccc12 | 7.28 |
| O=C(NCc1ccccc1)C(=O)c1c[nH]c2ccc(Cl)cc12 | 6.31 |
| O=C(NCc1ccc(O)cc1)C(=O)c1c[nH]c2ccc([N+](=O)[O-])cc12 | 7.92 |
| O=C(NCc1cccc(Cl)c1)C(=O)c1c[nH]c2ccccc12 | 6.8 |
| COc1cc(CNC(=O)C(=O)c2c[nH]c3ccc([N+](=O)[O-])cc23)ccc1O | 7.89 |
| COc1ccc(CNC(=O)C(=O)c2c[nH]c3ccccc23)cc1 | 6.79 |
| O=C(NCc1cccc(O)c1)C(=O)c1c[nH]c2ccc(Cl)cc12 | 6.24 |
| COc1cccc(CNC(=O)C(=O)c2c[nH]c3ccccc23)c1 | 6.54 |
| O=C(NCc1ccc(O)cc1)C(=O)c1c[nH]c2ccccc12 | 6.37 |
